From US11213524B2, “Pharmaceutical compositions for subcutaneous administration of levosimendan” (Tenax Therapeutics, Inc., priority 2018, dated 2022)

How the values were obtained:
[1] = Solubility of levosimendan at different Captisol concentrations (HPLC); format: physicochemical; conditions: 10 mM phosphate buffer, pH 7, Captisol 0, 50, 100, 200, 400 mg/ml, room temperature
Description: A study was conducted to evaluate the impact of the concentration of the cyclodextrin or cyclodextrin derivative on the solubility of levosimendan. In particular, the study focused on the cyclodextrin derivative, Captisol® (sulfobutylether beta-cyclodextrin).
The study compared compositions comprising levosimendan, 10 mM phosphate buffer, and Captisol® at the following concentrations: 0 mg/ml (i.e., no Captisol®), 50 mg/ml, 100 mg/ml, 200 mg/ml, and 400 mg/ml. The compositions with Captisol® were prepared by mixing the levosimendan and Captisol®, and adding the 10 mM phosphate buffer until the pH of the composition was 7. The compositions were stored at room temperature.
Captisol®'s impact on the solubility of levosimendan was determined using HPLC.

[2] = Storage stability of lyophilized levosimendan/Captisol composition (HPLC % area); format: physicochemical; conditions: for quantity of OR-1420: after 6 months
Description: A study was conducted to determine the stability of a levosimendan composition of the present invention stored under different conditions for up to six months.
The composition used for the study comprised 3 mg/ml of levosimendan and 200 mg/ml of Captisol®. To prepare the composition, the levosimendan and Captisol® were mixed together, adjusted to a pH of 7.4 using 1N NaOH, and then lyophilized.
Samples were dissolved in 50% acetonitrile and stored frozen at approximately −20° C. The compositions were analyzed at the following time points: 0, 1-month, 2-months, 4-months, and 6-months. The compositions were taken out of storage and reconstituted using distilled water. A sample from each composition was diluted at 15x-150x and analyzed using HPLC (Sciex API 3200 Linear Ion Trap, Shimadzu LC-20ADVP HPLC Pumps, Shimadzu Controller SCL-10AVP, Shimadzu Autosampler SIL-20ADVP) under the following conditions: Column, Restek Raptor Biphenyl, 2.7 μm, 100×3 mm; Mobile phase A, 5 mM Ammonium Formate/0.1% FA in H2O; Mobile phase B, 100% methanol).

[3] = Pharmacokinetic study, IV vs subcutaneous dosing, plasma levosimendan and OR-1896 by HPLC/MS/MS; conditions: male, Sprague Dawley, rat, in vivo
Description: A pharmacokinetic study was conducted in male Sprague Dawley rats to compare subcutaneous administration of a composition of the present invention with IV administration of a formulation of levosimendan. The study evaluated levosimendan blood levels and pain at the injection site.
This study involved comparing the results of administering two subcutaneous compositions according to embodiments of the present invention to a previous pharmacokinetic study in which male rats were dosed by tail vein levosimendan as an IV bolus injection at 0.5 mg/kg using a 0.25 mg/ml solution. […]
Plasma samples were analyzed for levosimendan and OR-1896 (the primary metabolite) by HPLC/MS/MS. […]

[4] = cited from earlier work
[5] = after four months, 25° C./60% RH
[6] = after six months, 25° C./60% RH

In the case of `C[C@@H]1CC(=O)NN=C1c1ccc(NN=C(C#N)C#N)cc1` [levosimendan, (−)-enantiomer of [[4-(1,4,5,6-tetrahydro-4-methyl-6-oxo-3-pyridazinyl)phenyl]hydrazono]prop anedinitrile], the solubility of levosimendan [1] is reported as “increased as the concentration of Captisol® increased”, the “Levels of Levosimendan (% Area)” value ([2]; 3 mg/ml levosimendan, 200 mg/ml Captisol, lyophilized, T0) is reported as 99.98% Area and the “Levels of Levosimendan (% Area)” value ([2]; 5° C., 1-month) is reported as 99.85% Area. For the same compound, the “Levels of Levosimendan (% Area)” value ([2]; 5° C., 2-months) was 100.00% Area, the “Levels of Levosimendan (% Area)” value ([2]; 5° C., 4-months) was 99.74% Area and the “Levels of Levosimendan (% Area)” value ([2]; 5° C., 6-months) was 99.73% Area. For the same compound, the “Levels of Levosimendan (% Area)” value ([2]; 25° C./60% RH, 1-month) was 99.75% Area, the “Levels of Levosimendan (% Area)” value ([2]; 25° C./60% RH, 2-months) was 99.79% Area and the “Levels of Levosimendan (% Area)” value ([2]; 25° C./60% RH, 4-months) was 99.51% Area. For the same compound, the “Levels of Levosimendan (% Area)” value ([2]; 25° C./60% RH, 6-months) was 99.49% Area, the “Levels of Levosimendan (% Area)” value ([2]; 40° C./75% RH, 1-month) was 99.51% Area and the “Levels of Levosimendan (% Area)” value ([2]; 40° C./75% RH, 4-months) was 98.88% Area. The “Levels of Levosimendan (% Area)” value ([2]; 40° C./75% RH, 6-months) was 98.37% Area, the “Level of Degradants (% Area)” value ([2]; after four months, 5° C.) was 99.91 % Area and the “Level of Degradants (% Area)” value [2, 5] was 99.64 % Area. The “Level of Degradants (% Area)” value ([2]; after four months, −20° C.) was 99.93 % Area, the “Level of Degradants (% Area)” value ([2]; after six months, 5° C.) was 99.90 % Area and the “Level of Degradants (% Area)” value [2, 6] was 99.57 % Area. For the same compound, the level of levosimendan ([2]; each storage condition, after six months) was “over 98%”, the “Levels of Levosimendan (% Area)” value ([2]; −20° C., 1-month) was 99.83% Area and the “Levels of Levosimendan (% Area)” value ([2]; −20° C., 4-months) was 99.79% Area. For the same compound, the “Levels of Levosimendan (% Area)” value ([2]; −20° C., 6-months) was 99.72% Area, the “Levels of Levosimendan (% Area)” value ([2]; −80° C., 1-month) was 99.82% Area and the “Levels of Levosimendan (% Area)” value ([2]; −80° C., 4-months) was 99.74% Area. For the same compound, the “Levels of Levosimendan (% Area)” value ([2]; −80° C., 6-months) was 99.74% Area, the “start of the β phase (loss of drug from blood mainly due to metabolism)” value [3] was “about 2 hours” and the “share of total levosimendan dose reduced in the intestine to OR-1855 (minor pathway)” value ([4]; in vivo) was “approximately 6%”. The “terminal elimination half-life of levosimendan” value ([4]; in vivo) was “about 1 hour”.
In the case of `CC(=O)Nc1ccc(C2=NNC(=O)C[C@H]2C)cc1` [OR-1896], the “time at which maximum concentrations of OR-1896 are seen” value ([4]; after starting a 24-hour infusion) is given as 2 to 4 days and the “half-life of OR-1896” value ([4]; heart failure patients) is given as 70 to 80 h.
For `C[C@@H]1CC(=O)NN=C1c1ccc(N/N=C(\C#N)C(N)=O)cc1` [OR-1420], the “Level of OR-1420 (% Area)” value ([2]; 5° C., 1-month) was 0.055% Area, the “Level of OR-1420 (% Area)” value ([2]; 5° C., 4-months) was 0.057% Area and the “Level of OR-1420 (% Area)” value ([2]; 5° C., 6-months) was 0.112% Area. For the same compound, the “Level of OR-1420 (% Area)” value ([2]; 25° C./60% RH, 1-month) was 0.155% Area, the “Level of OR-1420 (% Area)” value ([2]; 25° C./60% RH, 2-months) was 0.212% Area and the “Level of OR-1420 (% Area)” value ([2]; 25° C./60% RH, 4-months) was 0.285% Area. For the same compound, the “Level of OR-1420 (% Area)” value ([2]; 25° C./60% RH, 6-months) was 0.377% Area, the “Level of OR-1420 (% Area)” value ([2]; 40° C./75% RH, 1-month) was 0.436% Area and the “Level of OR-1420 (% Area)” value ([2]; 40° C./75% RH, 4-months) was 0.999% Area. The “Level of OR-1420 (% Area)” value ([2]; 40° C./75% RH, 6-months) was 1.420% Area, the “quantity of OR-1420” value ([2]; 40° C./75% RH) was “below 1.5%” and the “Level of OR-1420 (% Area)” value ([2]; T0) was 0.021% Area. For the same compound, the “Level of Degradants (% Area)” value ([2]; after four months, 5° C.) was 0.057 % Area, the “Level of Degradants (% Area)” value [2, 5] was 0.285 % Area and the “Level of Degradants (% Area)” value ([2]; after four months, 40° C./75% RH) was 0.999 % Area. The “Level of Degradants (% Area)” value ([2]; after four months, −20° C.) was 0.045 % Area, the “Level of Degradants (% Area)” value ([2]; after four months, −80° C.) was 0.084 % Area and the “Level of Degradants (% Area)” value ([2]; after six months, 5° C.) was 0.112 % Area. For the same compound, the “Level of Degradants (% Area)” value [2, 6] was 0.377 % Area, the “Level of Degradants (% Area)” value ([2]; after six months, 40° C./75% RH) was 1.42 % Area and the “Level of Degradants (% Area)” value ([2]; after six months, −20° C.) was 0.082 % Area. The “Level of Degradants (% Area)” value ([2]; after six months, −80° C.) was 0.083 % Area, the “quantity of OR-1420” value ([2]; all other storage conditions) was “less than 0.5%” and the “Level of OR-1420 (% Area)” value ([2]; −20° C., 1-month) was 0.050% Area. For the same compound, the “Level of OR-1420 (% Area)” value ([2]; −20° C., 4-months) was 0.045% Area, the “Level of OR-1420 (% Area)” value ([2]; −20° C., 6-months) was 0.082% Area and the “Level of OR-1420 (% Area)” value ([2]; −80° C., 1-month) was 0.055% Area. The “Level of OR-1420 (% Area)” value ([2]; −80° C., 4-months) was 0.084% Area and the “Level of OR-1420 (% Area)” value ([2]; −80° C., 6-months) was 0.083% Area.
